{
  "source": "patent US20090076201A1",
  "about": "“(METH) ACRYLOYLOXYTETRAHYDROFURANS AND PROCESS FOR PRODUCTION THEREOF” (Mitsubishi Chemical Corporation, priority 2005, published 2009)",
  "experiment": "Solubility test in heptane and aqueous solvents at 26° C.",
  "details": "grams of solute dissolved in 100 g of solvent",
  "experimental": "A solubility test of erythritan monomethacrylate (HOTHFMA) in aqueous solvents shown in the following table was carried out at a temperature of 26° C. In this connection, for the purpose of comparison, data on tetrahydrofurfuryl methacrylate (TFMA) and α-methacryloyl-γ-butyrolactone (GBLMA) are also shown. The numeric values in the table represent grams of individual solutes dissolved in 100 g of each solvent.",
  "data": [
    {"smiles": "C=C(C)C(=O)OC1COCC1O", "note": "(stereo not drawn) [HOTHFMA, 3-methacryloyloxy-4-hydroxytetrahydrofuran]", "values": [
      {"measurement": "Solubility (26° C.) in H2O", "setting": "solvent H2O", "value": ">395", "unit": "g/100 g solv."},
      {"measurement": "Solubility (26° C.) in H2O/MeOH 4/1 (wt)", "setting": "solvent H2O/MeOH 4/1 (wt)", "value": ">353", "unit": "g/100 g solv."},
      {"measurement": "Solubility (26° C.) in Heptane", "setting": "solvent heptane", "value": 1.74, "unit": "g/100 g solv."}
    ]}
  ]
}
